Source: publication PMC4408270 (Bioorganic & medicinal chemistry letters, 2015)
Residue numbers refer to the chain shown, from its start. “Also recorded” adds a separate entry of the source. Read-outs that look alike come from different tables or passages of the source.

Columns and labels:
CCK1R [1] = target: T1, CCK1R (Homo sapiens, UniProt P32238); assay type: cell-based
T1 sequence (P32238 1-428): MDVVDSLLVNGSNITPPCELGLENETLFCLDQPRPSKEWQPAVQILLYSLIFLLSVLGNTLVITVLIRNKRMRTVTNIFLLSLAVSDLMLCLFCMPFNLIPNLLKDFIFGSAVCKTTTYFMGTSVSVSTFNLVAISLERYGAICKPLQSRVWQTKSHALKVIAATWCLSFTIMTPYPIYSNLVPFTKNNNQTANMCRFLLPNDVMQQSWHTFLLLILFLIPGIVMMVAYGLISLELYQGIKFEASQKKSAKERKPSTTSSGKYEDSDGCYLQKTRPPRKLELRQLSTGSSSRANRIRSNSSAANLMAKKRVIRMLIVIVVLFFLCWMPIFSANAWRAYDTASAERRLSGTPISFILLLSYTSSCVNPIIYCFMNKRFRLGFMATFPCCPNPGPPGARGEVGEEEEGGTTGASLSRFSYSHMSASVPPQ

[2] = target: T2, CCK2R TM6 (V6.51I, Y6.52F) (Homo sapiens, UniProt P32239, V349I/Y350F); assay: 125I-CCK competition binding, chimeric construct
T2 sequence (P32239 1-447 V349I/Y350F): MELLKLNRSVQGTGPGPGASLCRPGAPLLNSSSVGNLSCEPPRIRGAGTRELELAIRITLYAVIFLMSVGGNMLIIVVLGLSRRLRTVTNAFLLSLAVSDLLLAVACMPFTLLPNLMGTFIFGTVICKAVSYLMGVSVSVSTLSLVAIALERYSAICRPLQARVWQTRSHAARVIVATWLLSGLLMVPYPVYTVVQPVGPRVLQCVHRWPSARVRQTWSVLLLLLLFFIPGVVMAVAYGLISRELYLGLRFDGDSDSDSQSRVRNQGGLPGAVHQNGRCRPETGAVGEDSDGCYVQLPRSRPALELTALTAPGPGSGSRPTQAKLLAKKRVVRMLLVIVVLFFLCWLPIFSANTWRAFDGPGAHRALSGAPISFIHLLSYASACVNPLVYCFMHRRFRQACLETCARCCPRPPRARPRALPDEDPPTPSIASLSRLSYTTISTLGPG

[3] = target: T2, CCK2R TM6 (V6.51I, Y6.52F); assay: 125I-BDZ-2 competition binding, chimeric construct
[4] = tested on: CCK2R TM chimeric constructs; assay: 125I-BDZ-2 competition binding, CCK2R-based chimeras as a group
[5] = target: T3, CCK2R TM3 (V3.28T, S3.29T) (Homo sapiens, UniProt P32239, S131T/V130T); assay: 125I-CCK competition binding, chimeric construct
T3 sequence (P32239 1-447 V130T/S131T): T2 sequence (P32239 1-447 V349I/Y350F) with V130T, S131T, I349V, F350Y

CCK2R [6] = target: T4, CCK2R (Homo sapiens, UniProt P32239); assay: Intracellular calcium response in CHO-CCK2R cells; assay type: cell-based
T4 sequence (P32239 1-447): T2 sequence (P32239 1-447 V349I/Y350F) with I349V, F350Y

CCK2R TM2 (T2.61N) [7] = target: T5, CCK2R TM2 (T2.61N) (Homo sapiens, UniProt P32239, T111N); assay: 125I-CCK competition binding, chimeric construct
T5 sequence (P32239 1-447 T111N): T2 sequence (P32239 1-447 V349I/Y350F) with T111N, I349V, F350Y

CCK2R TM2 (T2.61N) [8] = target: T5, CCK2R TM2 (T2.61N); assay: 125I-BDZ-2 competition binding, chimeric construct; details: NDB = no detectable binding
CCK2R [9] = target: T4, CCK2R; assay: Competition binding of orthosteric radioligand 125I-CCK, CHO cell membranes; details: 125I-CCK radioligand
CCK1R [10] = target: T1, CCK1R; assay: as above
CCK1R [11] = target: T1, CCK1R; assay: Intracellular calcium response in CHO-CCK1R cells; assay type: cell-based; details: % of the ATP (0.1mM) positive control

Row | Compound | Allosteric modulatory (PAM) activity on CCK dose-response curve (CCK1R [1]; increasing concentrations of compound) | IC50 [2] [nM] | IC50 [3] [nM] | Change in binding affinity at chimeras vs wild type CCK2R [4] | IC50 [5] [nM] | Intracellular calcium response at CCK2R-expressing cells (CCK2R [6]) | IC50 (CCK2R TM2 (T2.61N) [7]) [nM] | Right shift (poorer affinity) vs wild type CCK2R (CCK2R TM2 (T2.61N) [7]; 125I-CCK, CCK2R TM2 substitution) [fold] | IC50, 125I-BDZ-2 (CCK2R TM2 (T2.61N) [8]) | Fold lower IC50 at CCK2R than at CCK1R (CCK2R [9]) | IC50 (CCK1R [10]) [nM] | Intrinsic agonist response (CCK1R [11]; 100nM compound) [%] | Intrinsic agonist response (CCK1R [11]; 1µM compound) [%] | Shift to the right in the CCK dose-response curve (CCK1R [1]; 100nM compound) [fold] | Decrease in efficacy of the CCK response (CCK1R [1]; 1µM compound) [%] | Shift to the right in the CCK dose-response curve (CCK1R [1]; 1µM compound) [fold]
1 | CC(C)N(C(=O)CN1C(=O)[C@H](NC(=O)Nc2cccc(C(=O)O)c2)C(=O)N(c2ccccc2)c2ccccc21)c1ccccc1 [GI181771X, reference compound] | did not yield a significant left-shift or an increase in efficacy; also recorded: no PAM activity |  |  |  |  |  |  |  |  |  |  |  |  |  |  | 
2 | COc1ccc(N(C)C(=O)CN2C(=O)C(NC(=O)Nc3ccccc3)C(=O)N(c3ccccc3)c3ccccc32)cc1 (stereo not drawn) [GR135470X] |  | 165 ± 38 | 36 ± 5.5 | none of the chimeras tested exhibited a change in binding affinities | 10.1 ± 1.6 | stimulated no intracellular calcium responses | 519 ± 138 | 10 | NDB | ~ 9 fold | 450 ± 104 | 43 | 48 | 3.6 | 14 | 8.5
3 | O=C(CN1C(=O)C(NC(=O)Nc2ccccc2)C(=O)N(c2ccccc2)c2ccccc21)Nc1ccccc1 (stereo not drawn) |  |  |  |  |  | stimulated no intracellular calcium responses |  |  |  |  |  |  |  |  | 11 | 
